Data from patent publication US6617136B2, “Biological sample processing methods and compositions that include surfactants” (3M Innovative Properties Company, priority 2001, dated 2003).

Assays:
[1] = target: T1, AMPLITAQ DNA polymerase (Thermus aquaticus, UniProt P19821); assay: PCR amplification of PERV protease fragment in the presence of dye/surfactant mixture; type: biochemical; conditions: dye at 0.1 or 0.2 mg/mL, agarose gel
T1 construct: purchased Applied Biosystems, Foster City, Calif
Method: Typically, a fresh stock solution of 5 milligrams (mg) of a water-insoluble near-infrared dye (NIR dye) was dissolved in 50 microliters (μL) of dimethylsulfoxide (DMSO) and brought up in water to a final volume of 1 milliliter (mL). This was then diluted out to various concentrations of dye. The diluted dye (typically 0.2 mg/mL) was then added to a surfactant solution (typically 4 wt-%) to form a complex. The complex was added to a PCR reaction.
PCR reactions were set up for a conserved sequence (327 bp) in the protease region of the genome of porcine endogenous retrovirus using a plasmid containing the PERV protease fragment, a forward primer and a reverse primer designed using a primer express program from Applied Biosystems, and AMPLITAQ DNA polymerase cocktail (commercially available from Applied Biosystems, Foster City, Calif.) and cycled in a thermocycler (9700, Applied Biosystems). The PCR reactions were typically carried out in 25-μL volumes. The NIR dye/surfactant mixture was added to the PCR cocktail to give the desired concentration of dye and surfactant in a total volume of 25 μL. […]
In order to find out the optimum concentration of surfactant for PCR with NIR dye (785 WS and SDA 8080), the surfactant concentration in PCR reaction was varied from 0.1 wt-% to 4 wt-%. The PCR product formed was quantitated using DNA 7500 Labchip kit in Agilent 2100 Bioanalyzer (Agilent Inc, Paloalto, Calif.). […]
A variety of dyes (NIR dyes such as IR782, IR768, SDA 2141, SDA8327, IR 830 WS, fluorescent dyes like oligreen and visible dyes like dichlorophenol, indophenol, saffranin, crystal violet, and commercially available food coloring) at typical concentrations of 0.1 or 0.2 mg/mL were allowed to interact with 4 wt-% PLURONIC F127 and each mixture was added to the PCR cocktail. The reaction was set up to amplify PERV protease fragment as described in Example 2 and the products of the reaction were analyzed by agarose gel electrophoresis.

[2] = Laser stability / photobleaching of dye on laser exposure; type: physicochemical
Method: An 813-nm diode laser source at 1.2W (1.9A) (Opto Power Corp., Tucson, Ariz.) was used to heat a 10-μL volume of near-IR dye at a concentration (0.1 mg/mL for 785 WS, 0.2 mg/mL for SDA 8080) to yield a 35° C. rise in temperature. The laser was manually turned on long enough for the temperature in a 10-μL well to increase by 35° C. (1-3 seconds) and was manually turned off when that level was attained. The temperature data was obtained using a thermocouple in the well, and the transmittance data was obtained via a power meter whose signals were digitized and graphically interpreted.
In another experiment, the 10 μL well was used to see if the dye/surfactant mixture could withstand laser cycling over a period of 30 cycles. The laser power was systematically varied from 60° C. to 94° C., 30 times.
Unlike in Example 8, some dyes and dye/surfactant complexes undergo photodegradation when exposed to laser beam. […] Specifically, in the case of 785 WS/BRIJ-97, the addition of ascorbic acid (typically 5 mg/mL) helped reduce the amount of photobleaching from 100% to 20% after 30 cycles. In some circumstances, rapid/controlled photodegradation may be desired. […] This would allow DNA tags (fluorescent or vis/IR) to be monitored at the end of the PCR reaction.

T1 sequence (P19821 whole entry, the tested form may be a part): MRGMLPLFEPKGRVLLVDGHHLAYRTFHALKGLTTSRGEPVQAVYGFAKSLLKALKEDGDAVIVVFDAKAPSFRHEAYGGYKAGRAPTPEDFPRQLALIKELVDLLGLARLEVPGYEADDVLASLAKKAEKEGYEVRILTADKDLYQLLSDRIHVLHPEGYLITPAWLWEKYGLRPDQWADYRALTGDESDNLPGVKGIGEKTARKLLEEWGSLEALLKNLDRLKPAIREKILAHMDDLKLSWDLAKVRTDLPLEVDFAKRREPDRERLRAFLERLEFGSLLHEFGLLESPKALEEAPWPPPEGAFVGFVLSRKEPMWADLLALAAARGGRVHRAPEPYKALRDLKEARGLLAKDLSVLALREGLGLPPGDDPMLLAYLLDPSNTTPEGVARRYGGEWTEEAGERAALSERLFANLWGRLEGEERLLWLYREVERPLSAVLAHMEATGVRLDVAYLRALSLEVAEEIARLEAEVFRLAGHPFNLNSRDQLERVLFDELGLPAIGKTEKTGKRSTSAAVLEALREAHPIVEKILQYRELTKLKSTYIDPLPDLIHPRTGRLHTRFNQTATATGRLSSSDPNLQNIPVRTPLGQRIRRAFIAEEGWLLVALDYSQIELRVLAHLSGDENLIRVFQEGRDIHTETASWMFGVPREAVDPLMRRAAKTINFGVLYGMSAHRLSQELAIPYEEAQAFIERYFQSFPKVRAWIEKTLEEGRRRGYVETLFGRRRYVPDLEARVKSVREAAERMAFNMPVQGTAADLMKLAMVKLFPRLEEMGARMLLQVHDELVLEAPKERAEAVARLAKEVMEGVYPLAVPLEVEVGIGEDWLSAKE

Cc1cc2nc3cc(C)c(N)cc3[n+](-c3ccccc3)c2cc1N.[Cl-] [saffranin]
effect of dye alone on PCR [1]: inhibited PCR

dichlorophenol
effect of dye alone on PCR [1]: inhibited PCR

CN(C)c1ccc(C(=C2C=CC(=[N+](C)C)C=C2)c2ccc(N(C)C)cc2)cc1 [crystal violet]
effect of dye alone on PCR [1]: inhibited PCR

O=C1O[C@H]([C@@H](O)CO)C(O)=C1O [ascorbic acid]
amount of photobleaching ([2]; 785 WS/BRIJ-97 with ascorbic acid (typically 5 mg/mL), after 30 cycles): 20%
effect of antioxidant on dye absorbance ([2]; added to SDA 8080): destroyed the absorbance in the visible and near-IR region of the dye
effect of antioxidant on photobleaching ([2]; added to virtually any of the surfactants tested with 785 WS): reduced photobleaching significantly
